In patent publication US10670605B2, “Cysteine reactive probes and uses thereof” (The Scripps Research Institute, priority 2015, dated 2020):

What was measured:
ACO2 C385 (Q99798) = ACO2 C385 (Q99798) (Homo sapiens, UniProt Q99798); test: Competitive isoTOP-ABPP in situ; type: cell-based; conditions: MDA-MB-231 cells
PRMT1 (C109) = biological target: T1, PRMT1 (C109) (Homo sapiens, UniProt Q99873); test: Blockade of IA-rhodamine labeling of recombinant PRMT1 (gel-based ABPP); type: binding
T1 construct: Full length PRMT1 subcloned into pET45b (+) (Novagen) was previously generated by the Cravatt lab; inferred from Ni-NTA purification and the pET45b vector; made in house; host or cells: E. coli BL21(DE3)
T1 sequence (Q99873 11-371 limits assumed): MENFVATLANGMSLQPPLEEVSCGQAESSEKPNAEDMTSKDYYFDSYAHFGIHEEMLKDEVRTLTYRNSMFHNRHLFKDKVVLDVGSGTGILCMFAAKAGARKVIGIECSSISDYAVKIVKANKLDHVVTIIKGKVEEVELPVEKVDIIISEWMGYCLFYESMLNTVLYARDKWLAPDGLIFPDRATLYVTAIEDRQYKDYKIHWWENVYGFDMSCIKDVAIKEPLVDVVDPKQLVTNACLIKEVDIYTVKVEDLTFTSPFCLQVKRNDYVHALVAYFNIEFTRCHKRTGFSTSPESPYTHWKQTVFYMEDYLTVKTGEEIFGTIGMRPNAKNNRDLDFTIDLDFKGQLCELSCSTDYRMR

[1] = biological target: cysteines in MDA-MB-231 and Ramos cells (Homo sapiens, UniProt P16455); test: Competitive isoTOP-ABPP in situ (fragment-treated cells); type: cell-based; conditions: 200 μM, insitu, ramos
[2] = biological target: cysteines in MDA-MB-231 and Ramos cells (Homo sapiens, UniProt P41226); test: as above; type: cell-based; conditions: 200 μM, insitu, 231
cysteines in MDA-MB-231 and Ramos cells (Homo sapiens, UniProt P41226), sequence (P41226 whole entry): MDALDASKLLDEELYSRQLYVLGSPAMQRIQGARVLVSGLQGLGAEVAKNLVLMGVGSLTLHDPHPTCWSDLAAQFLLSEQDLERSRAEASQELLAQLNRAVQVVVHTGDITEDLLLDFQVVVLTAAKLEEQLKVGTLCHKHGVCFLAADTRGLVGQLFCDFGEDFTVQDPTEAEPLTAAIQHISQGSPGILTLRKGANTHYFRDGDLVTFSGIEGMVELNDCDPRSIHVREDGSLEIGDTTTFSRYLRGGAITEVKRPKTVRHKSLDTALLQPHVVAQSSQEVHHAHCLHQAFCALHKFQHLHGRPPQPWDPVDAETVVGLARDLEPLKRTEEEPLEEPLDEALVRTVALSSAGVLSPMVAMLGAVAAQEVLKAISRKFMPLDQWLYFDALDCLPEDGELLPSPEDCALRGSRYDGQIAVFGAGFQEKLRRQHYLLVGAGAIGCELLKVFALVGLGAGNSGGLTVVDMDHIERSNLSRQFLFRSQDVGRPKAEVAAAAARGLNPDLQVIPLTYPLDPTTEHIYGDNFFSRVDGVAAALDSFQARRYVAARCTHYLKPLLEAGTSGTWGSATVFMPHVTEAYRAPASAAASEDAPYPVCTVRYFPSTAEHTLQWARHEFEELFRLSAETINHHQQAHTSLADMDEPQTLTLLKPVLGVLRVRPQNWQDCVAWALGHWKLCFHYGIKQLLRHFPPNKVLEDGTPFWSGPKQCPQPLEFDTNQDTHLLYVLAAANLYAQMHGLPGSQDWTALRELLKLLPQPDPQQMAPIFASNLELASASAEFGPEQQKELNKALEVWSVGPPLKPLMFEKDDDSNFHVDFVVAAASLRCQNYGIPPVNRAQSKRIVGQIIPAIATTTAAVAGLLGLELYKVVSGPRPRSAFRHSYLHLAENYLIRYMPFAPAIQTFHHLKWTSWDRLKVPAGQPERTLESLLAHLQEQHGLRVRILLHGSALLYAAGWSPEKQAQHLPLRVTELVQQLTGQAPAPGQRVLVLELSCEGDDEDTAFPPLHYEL

[3] = biological target: cysteines in MDA-MB-231 and Ramos cells (Homo sapiens, UniProt Q9Y2S7); test: as above; type: cell-based; conditions: 200 μM, insitu, 231
[4] = biological target: T2, cysteines in MDA-MB-231 and Ramos cells (Homo sapiens, UniProt P42695); test: as above; type: cell-based; conditions: 200 μM, insitu
T2 sequence (P42695 1-1498): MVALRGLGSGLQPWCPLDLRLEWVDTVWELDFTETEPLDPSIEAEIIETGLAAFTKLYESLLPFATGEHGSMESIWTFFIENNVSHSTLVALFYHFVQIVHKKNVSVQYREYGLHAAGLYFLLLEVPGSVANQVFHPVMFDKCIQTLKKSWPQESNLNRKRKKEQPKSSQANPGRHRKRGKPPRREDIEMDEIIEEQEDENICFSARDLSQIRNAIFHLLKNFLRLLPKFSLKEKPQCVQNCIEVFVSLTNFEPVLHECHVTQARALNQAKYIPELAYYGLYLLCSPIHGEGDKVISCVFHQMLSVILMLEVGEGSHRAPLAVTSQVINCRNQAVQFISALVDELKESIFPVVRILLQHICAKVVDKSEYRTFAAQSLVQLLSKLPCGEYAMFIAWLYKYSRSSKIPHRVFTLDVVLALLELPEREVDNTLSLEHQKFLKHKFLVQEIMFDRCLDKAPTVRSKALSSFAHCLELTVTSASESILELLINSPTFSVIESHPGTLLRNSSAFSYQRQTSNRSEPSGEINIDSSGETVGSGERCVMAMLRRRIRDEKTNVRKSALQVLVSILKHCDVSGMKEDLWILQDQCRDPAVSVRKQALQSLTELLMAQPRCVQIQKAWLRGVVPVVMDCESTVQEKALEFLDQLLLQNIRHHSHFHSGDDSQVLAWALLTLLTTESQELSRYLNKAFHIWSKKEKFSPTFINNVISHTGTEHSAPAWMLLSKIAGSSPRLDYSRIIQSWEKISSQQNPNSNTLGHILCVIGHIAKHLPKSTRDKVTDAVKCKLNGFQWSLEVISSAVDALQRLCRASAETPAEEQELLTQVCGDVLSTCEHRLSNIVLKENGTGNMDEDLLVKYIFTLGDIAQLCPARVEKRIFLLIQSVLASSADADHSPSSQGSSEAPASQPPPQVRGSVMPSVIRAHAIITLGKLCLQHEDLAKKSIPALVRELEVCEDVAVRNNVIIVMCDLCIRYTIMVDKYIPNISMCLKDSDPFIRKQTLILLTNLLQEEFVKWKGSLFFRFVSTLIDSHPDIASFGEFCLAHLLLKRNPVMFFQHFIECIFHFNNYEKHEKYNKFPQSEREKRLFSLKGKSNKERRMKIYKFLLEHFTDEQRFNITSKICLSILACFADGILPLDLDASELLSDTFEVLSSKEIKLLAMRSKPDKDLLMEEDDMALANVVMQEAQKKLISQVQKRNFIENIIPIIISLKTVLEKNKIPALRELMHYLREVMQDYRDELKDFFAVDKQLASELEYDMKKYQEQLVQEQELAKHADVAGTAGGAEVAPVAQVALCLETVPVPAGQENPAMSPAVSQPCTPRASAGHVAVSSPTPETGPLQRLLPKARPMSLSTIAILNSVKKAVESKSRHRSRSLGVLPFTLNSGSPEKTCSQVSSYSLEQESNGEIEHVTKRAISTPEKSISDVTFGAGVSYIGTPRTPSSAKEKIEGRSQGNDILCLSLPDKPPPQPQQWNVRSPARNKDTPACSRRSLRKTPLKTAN

[5] = biological target: cysteines in MDA-MB-231 and Ramos cells (Homo sapiens, UniProt Q99986); test: as above; type: cell-based
cysteines in MDA-MB-231 and Ramos cells (Homo sapiens, UniProt Q99986), sequence (Q99986 whole entry): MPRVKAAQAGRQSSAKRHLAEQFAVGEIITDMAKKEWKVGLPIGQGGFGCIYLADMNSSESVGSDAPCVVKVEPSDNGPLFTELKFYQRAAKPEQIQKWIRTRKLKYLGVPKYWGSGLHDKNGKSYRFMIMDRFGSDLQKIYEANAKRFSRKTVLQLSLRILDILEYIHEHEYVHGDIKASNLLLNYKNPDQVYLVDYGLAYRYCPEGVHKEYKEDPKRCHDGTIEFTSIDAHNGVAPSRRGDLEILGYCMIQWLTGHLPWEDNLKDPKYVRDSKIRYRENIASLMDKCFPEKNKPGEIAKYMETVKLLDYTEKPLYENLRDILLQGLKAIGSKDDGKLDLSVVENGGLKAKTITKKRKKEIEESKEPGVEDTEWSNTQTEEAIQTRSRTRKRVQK

[6] = biological target: cysteines in MDA-MB-231 and Ramos cells (Homo sapiens, UniProt Q9NZB2); test: as above; type: cell-based; conditions: 200 μM, insitu, 231
cysteines in MDA-MB-231 and Ramos cells (Homo sapiens, UniProt Q9NZB2), sequence (Q9NZB2 whole entry): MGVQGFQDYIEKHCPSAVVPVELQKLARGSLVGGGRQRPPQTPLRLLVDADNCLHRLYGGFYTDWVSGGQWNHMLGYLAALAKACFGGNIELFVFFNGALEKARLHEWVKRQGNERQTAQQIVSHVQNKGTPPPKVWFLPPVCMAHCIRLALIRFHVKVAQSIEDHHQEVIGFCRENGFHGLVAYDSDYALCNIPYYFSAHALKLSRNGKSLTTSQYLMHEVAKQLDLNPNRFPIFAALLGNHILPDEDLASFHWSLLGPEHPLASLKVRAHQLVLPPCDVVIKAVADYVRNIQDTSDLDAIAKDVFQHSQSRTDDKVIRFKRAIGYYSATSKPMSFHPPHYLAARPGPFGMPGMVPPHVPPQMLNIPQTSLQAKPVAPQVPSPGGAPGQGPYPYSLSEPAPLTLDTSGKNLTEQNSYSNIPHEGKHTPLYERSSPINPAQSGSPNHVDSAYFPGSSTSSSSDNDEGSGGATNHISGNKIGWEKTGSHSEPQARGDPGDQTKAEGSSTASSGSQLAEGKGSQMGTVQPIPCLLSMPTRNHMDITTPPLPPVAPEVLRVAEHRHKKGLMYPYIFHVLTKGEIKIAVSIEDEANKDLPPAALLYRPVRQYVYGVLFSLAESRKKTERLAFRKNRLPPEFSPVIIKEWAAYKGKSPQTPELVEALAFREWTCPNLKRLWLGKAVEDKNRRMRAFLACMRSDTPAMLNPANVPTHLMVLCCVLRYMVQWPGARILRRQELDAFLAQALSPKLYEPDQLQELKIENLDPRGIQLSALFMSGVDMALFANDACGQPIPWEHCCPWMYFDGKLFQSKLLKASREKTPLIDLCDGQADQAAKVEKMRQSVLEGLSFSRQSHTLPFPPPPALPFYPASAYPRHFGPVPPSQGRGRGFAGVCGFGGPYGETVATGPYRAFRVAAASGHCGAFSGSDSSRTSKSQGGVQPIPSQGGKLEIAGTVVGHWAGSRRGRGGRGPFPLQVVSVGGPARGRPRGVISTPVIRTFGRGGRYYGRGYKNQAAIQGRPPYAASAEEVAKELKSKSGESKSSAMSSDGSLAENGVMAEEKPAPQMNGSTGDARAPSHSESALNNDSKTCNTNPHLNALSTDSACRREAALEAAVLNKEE

[7] = biological target: cysteines in MDA-MB-231 and Ramos cells (Homo sapiens, UniProt Q13613); test: as above; type: cell-based; conditions: 200 μM, insitu
[8] = biological target: cysteines in MDA-MB-231 and Ramos cells (Homo sapiens, UniProt Q15796); test: as above; type: cell-based; conditions: 200 μM, insitu
cysteines in MDA-MB-231 and Ramos cells (Homo sapiens, UniProt Q15796), sequence (Q15796 whole entry): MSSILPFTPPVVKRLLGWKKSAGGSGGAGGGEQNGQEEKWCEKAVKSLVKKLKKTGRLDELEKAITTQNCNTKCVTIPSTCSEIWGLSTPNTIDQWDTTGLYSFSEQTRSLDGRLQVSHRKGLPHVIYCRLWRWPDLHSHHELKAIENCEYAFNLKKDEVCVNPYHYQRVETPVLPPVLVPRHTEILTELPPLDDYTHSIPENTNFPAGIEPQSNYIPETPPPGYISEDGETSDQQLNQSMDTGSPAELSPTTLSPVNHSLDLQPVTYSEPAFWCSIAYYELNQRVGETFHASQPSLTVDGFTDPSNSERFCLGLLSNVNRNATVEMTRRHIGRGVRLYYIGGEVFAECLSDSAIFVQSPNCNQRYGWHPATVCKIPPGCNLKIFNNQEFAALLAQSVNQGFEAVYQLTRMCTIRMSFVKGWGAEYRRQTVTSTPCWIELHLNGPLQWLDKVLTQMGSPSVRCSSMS

[9] = biological target: cysteines in MDA-MB-231 and Ramos cells (Homo sapiens, UniProt Q13232); test: as above; type: cell-based; conditions: 200 μM, insitu
[10] = biological target: cysteines in MDA-MB-231 and Ramos cells (Homo sapiens, UniProt Q6PJG6); test: as above; type: cell-based; conditions: 200 μM, insitu, ramos
cysteines in MDA-MB-231 and Ramos cells (Homo sapiens, UniProt Q6PJG6), sequence (Q6PJG6 whole entry): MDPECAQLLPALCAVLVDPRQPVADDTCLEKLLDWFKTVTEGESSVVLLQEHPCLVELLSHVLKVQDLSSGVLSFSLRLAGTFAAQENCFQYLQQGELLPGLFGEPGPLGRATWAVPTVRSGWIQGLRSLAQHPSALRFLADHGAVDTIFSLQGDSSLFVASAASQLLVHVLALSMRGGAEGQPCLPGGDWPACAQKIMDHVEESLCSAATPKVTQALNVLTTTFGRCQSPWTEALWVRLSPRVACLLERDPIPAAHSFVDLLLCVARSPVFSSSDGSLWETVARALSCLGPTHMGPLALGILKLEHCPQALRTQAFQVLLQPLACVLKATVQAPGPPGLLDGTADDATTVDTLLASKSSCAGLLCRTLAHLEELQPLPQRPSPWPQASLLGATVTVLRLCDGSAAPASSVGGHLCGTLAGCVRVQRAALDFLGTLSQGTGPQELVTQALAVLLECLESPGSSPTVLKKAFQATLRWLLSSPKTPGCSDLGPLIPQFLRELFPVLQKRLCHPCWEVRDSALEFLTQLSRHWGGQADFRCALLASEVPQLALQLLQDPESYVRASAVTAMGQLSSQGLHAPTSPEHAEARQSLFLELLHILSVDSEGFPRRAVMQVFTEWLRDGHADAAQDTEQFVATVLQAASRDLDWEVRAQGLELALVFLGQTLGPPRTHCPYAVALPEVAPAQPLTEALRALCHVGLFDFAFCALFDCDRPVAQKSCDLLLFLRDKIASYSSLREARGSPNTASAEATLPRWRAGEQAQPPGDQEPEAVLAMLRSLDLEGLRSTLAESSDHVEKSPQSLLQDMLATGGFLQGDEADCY

[11] = biological target: cysteines in MDA-MB-231 and Ramos cells (Homo sapiens, UniProt A2A288); test: as above; type: cell-based; conditions: 200 μM, insitu, ramos
[12] = biological target: cysteines in MDA-MB-231 and Ramos cells (Homo sapiens, UniProt Q9P2X3); test: as above; type: cell-based; conditions: 200 μM, insitu, 231

ACO2 C385 (Q99798), sequence (Q99798 28-780): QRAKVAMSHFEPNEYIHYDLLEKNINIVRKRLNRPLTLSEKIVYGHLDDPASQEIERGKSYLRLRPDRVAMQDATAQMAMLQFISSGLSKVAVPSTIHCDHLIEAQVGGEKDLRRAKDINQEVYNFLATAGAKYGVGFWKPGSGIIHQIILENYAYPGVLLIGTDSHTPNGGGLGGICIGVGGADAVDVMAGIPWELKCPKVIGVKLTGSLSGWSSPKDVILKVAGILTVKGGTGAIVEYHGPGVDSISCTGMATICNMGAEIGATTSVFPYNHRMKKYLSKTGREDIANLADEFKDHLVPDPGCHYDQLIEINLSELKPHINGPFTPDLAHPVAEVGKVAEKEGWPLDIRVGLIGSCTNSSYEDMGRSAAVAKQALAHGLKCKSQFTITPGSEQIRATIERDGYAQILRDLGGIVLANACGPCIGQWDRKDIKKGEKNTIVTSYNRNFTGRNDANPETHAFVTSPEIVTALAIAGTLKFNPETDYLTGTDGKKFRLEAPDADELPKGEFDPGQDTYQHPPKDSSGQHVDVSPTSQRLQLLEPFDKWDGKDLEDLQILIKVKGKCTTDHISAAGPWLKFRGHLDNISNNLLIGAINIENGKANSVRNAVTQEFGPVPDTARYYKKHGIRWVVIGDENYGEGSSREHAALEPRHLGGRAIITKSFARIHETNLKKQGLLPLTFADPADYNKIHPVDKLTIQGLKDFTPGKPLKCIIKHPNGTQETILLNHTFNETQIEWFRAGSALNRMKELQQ

## COc1ccc2c(c1)CCCN2C(=O)CCl [compound 2]
ACO2 C385 (Q99798); fragment 2 at 200 μM
  isoTOP-ABPP reactivity profile (ratio) 2_200 μM_in-situ_231: 20.0

## O=C(CCl)Nc1cc(C(F)(F)F)cc(C(F)(F)F)c1 [compound 3]
PRMT1 (C109); recombinant WT-PRMT1 in cell lysate
  blockade of IA-rhodamine labeling of PRMT1 (in words): inactive

## COc1ccc(C2CC(c3cccs3)=NN2C(=O)CCl)cc1 (centres unmarked) [compound 4]
ACO2 C385 (Q99798); fragment 4 at 100 μM
  isoTOP-ABPP reactivity profile (ratio) 4_100 μM_in-situ_231: 1.0

## O=C(CCl)N1CCN(S(=O)(=O)c2ccccc2F)CC1 [compound 10]
[1]
  isoTOP-ABPP ratio, cysteine P16455_C145: 20.0
[2]
  isoTOP-ABPP ratio, cysteine P41226_C599: 8.0
[3]
  isoTOP-ABPP ratio, cysteine Q9Y2S7_C143: 13.9
[4]; 231
  isoTOP-ABPP ratio, cysteine P42695_C541: 20.0
[4]; ramos
  isoTOP-ABPP ratio, cysteine P42695_C541: 6.5
[5]; 200 μM, insitu, ramos
  isoTOP-ABPP ratio, cysteine Q99986_C50: 0 .7

## Cn1cc(S(=O)(=O)N2CCOCC2)cc1C(=O)NC(=O)CCl [compound 11]
PRMT1 (C109); recombinant WT-PRMT1 1 μM in cell lysate, fragment 1 h
  IC50: 36 µM

## O=C(CCl)NC(=O)NC12CC3CC(CC(C3)C1)C2 [compound 12]
[6]
  isoTOP-ABPP ratio, cysteine Q9NZB2_C531: 20.0

## O=C(CCl)NC12CC3CC(CC(C3)C1)C2 [compound 21]
[7]; 231
  isoTOP-ABPP ratio, cysteine Q13613_C117: 0.9
[2]
  isoTOP-ABPP ratio, cysteine P41226_C599: 1.0
[4]; 231
  isoTOP-ABPP ratio, cysteine P42695_C541: 2.3
[8]; 231
  isoTOP-ABPP ratio, cysteine Q15796_C81: 1.3
[6]
  isoTOP-ABPP ratio, cysteine Q9NZB2_C531: 1.6

## O=C(CCl)N1CCN(CC(=O)N2CCOCC2)CC1 [compound 29]
[9]; ramos
  isoTOP-ABPP ratio Q13232_C158: 1.5
[7]; ramos
  isoTOP-ABPP ratio Q13613_C117: 1.5
[10]
  isoTOP-ABPP ratio Q6PJG6_C673: 4.6
[8]; ramos
  isoTOP-ABPP ratio Q15796_C81: 1.3
[11]
  isoTOP-ABPP ratio A2A288_C367: 1.3

## C=CC(=O)N(Cc1cccnc1)c1cc(C(F)(F)F)cc(C(F)(F)F)c1 [compound 31]
[1]
  isoTOP-ABPP ratio, P16455_C145: 1.2
[12]
  isoTOP-ABPP ratio Q9P2X3_C195: 0.5
[10]
  isoTOP-ABPP ratio Q6PJG6_C673: 20.0
[11]
  isoTOP-ABPP ratio A2A288_C367: 1.9

## Cc1ccc(C=C(C#N)C(=O)NCCN2CCOCC2)cc1 [compound 41]
[3]
  isoTOP-ABPP ratio Q9Y2S7_C143: 1.2

## CC1CCc2ccccc2N1C(=O)CCl (centres unmarked) [compound 45]
[9]; 231
  isoTOP-ABPP ratio Q13232_C158: 8.8
[12]
  isoTOP-ABPP ratio Q9P2X3_C195: 20.0
[5]; cysteine Q99986_C50, fragment 200 μM, in situ, 231 (MDA-MB-231) cells
  reactivity profile of liganded cysteine Q99986_C50 with fragment electrophile (isoTOP-ABPP ratio): 4.1
